# Measured values published in US12644889B2, “Viral condensates and methods of use thereof” (Whitehead Institute for Biomedical Research, priority 2020, dated 2026).
# Target: T1, SARS-CoV-2 nucleocapsid condensates (Severe acute respiratory syndrome coronavirus 2, UniProt P0DTC9)
# T1 construct: Streptavidin tag (so in the source); made in house; host or cells: HEK cells
# Assay: drug partitioning assay in nucleocapsid condensates (confocal fluorescence microscopy)
# Details: in vitro condensates not containing DNA; 10 uM nucleocapsid, 10% PEG, 1-50 uM drug
smiles,measurement,value
O=C1c2c(O)ccc(O)c2C(=O)c2c(NCCNCCO)ccc(NCCNCCO)c21 [mitoxantrone],partitioning of drug into nucleocapsid condensates,partitions into SARS-CoV-2 nucleocapsid condensates not containing DNA
